Experimental data published in patent US20220088056A1, “COMBINATION FOR TREATING CANCER” (NITTO DENKO CORPORATION, priority 2018, published 2022).

How the values were obtained:
[1] = tested on: hsa-miR-345-overexpressing HCT116 cells or control HCT116 cells; experiment: Cell number counting in hsa-miR-345-overexpressing versus control HCT116 cells after transfection with BcL-XL inhibitor (Example 3); format: cell-based; settings: 25 pmol; hsa-miR-345-overexpressing vs hsa-miR-345 wild-type HCT116 line; days 1 and 4 after transfection; FIG. 3
Experimental: The anticancer activity of a BcL-XL inhibitor was evaluated in cancer cells in which miR-345 was overexpressed by a miR-345-related molecule.
The miR-345-related molecule used was Expression plasmid for human microRNA MIR345 (MI0000825, OriGene Technologies, Inc., Compound F).
A cell line overexpressing miR-345 was established by introducing Compound E to hsa-miR-345 wild-type HCT116 cells using Lipofectamine 3000 (Invitrogen Corp.), and picking up a single clone by drug selection. In the experiment, a clone was used which was confirmed to have the increased expression of hsa-miR-345-5p by qPCR. A hsa-miR-345 wild-type HCT116 cell line as a control was established by introducing Expression plasmid pCMV-MIR Vector (PCMVMIR, OriGene Technologies, Inc., Compound G) to hsa-miR-345 wild-type HCT116 cells using Lipofectamine 3000 (Invitrogen Corp.), and picking up a single clone by drug selection.
Transfection with Compound A was performed as follows: on the day before transfection, the hsa-miR-345-overexpressing HCT116 cells or the control HCT116 cells were seeded at 0.1×10^5 cells/well to a 6-well tissue culture plastic dish. 25 pmol of Compound A was added into 250 μL of Opti-MEM I Reduced Serum Medium (Invitrogen Corp.) and gently mixed. […] On days 1 and 4 after the transfection, the cell number was counted. […]

[2] = tested on: human normal dermal fibroblasts NHDF-Ad-Der Fibroblasts; experiment: Influence on proliferation of normal cells, live and dead cell count with Hoechst 33342 / propidium iodide (Example 5); format: cell-based; settings: 1.1+1.1 pmol, day 4 after transfection, compared with control (Compound C and Compound I), FIG. 5
Experimental: A combination of a BcL-XL inhibitor and a miR-345-related molecule was tested for the presence or absence of its influence on the proliferation of normal cells.
The BcL-XL inhibitor used was Compound A, and the miR-345-related molecule used was Compound B. Compound C was used as a negative control of the BcL-XL inhibitor, and Compound I was used as a negative control of the miR-345-related molecule.
The normal cells used were human normal dermal fibroblasts NHDF-Ad-Der Fibroblasts (Lonza Group AG, #CC-2511). The cells were cultured in Fibroblast Basal Medium (FBM™, Lonza Group AG, #CC-3131) containing FGM™-2 SingleQuots™ (Lonza Group AG, #CC-4126) under conditions of 37° C. and 5% CO2.
Transfection with the BcL-XL inhibitor and/or the miR-345-related molecule was performed as follows: on the day before transfection, NHDF was seeded at 0.15×10^4 cells/well to a 96-well tissue culture plastic dish. […] Live and dead cell numbers were counted using Celigo® Image Cytometer (Nexcelom Bioscience, LLC, #Celigo-106-0448) in which the number of cells stained with Hoechst 33342 was regarded as the total of the live and dead cell numbers and the number of cells stained with propidium iodide was regarded as the dead cell number.

## Compound A: BcL-XL inhibitor: siRNA, sense 5'-GGUAUUGGUGAGUCGGAUCtt-3' (SEQ ID NO: 4), antisense 5'-GAUCCGACUCACCAAUACCtt-3' (SEQ ID NO: 5) (sense GGUAUUGGUGAGUCGGAUCTT; antisense GAUCCGACUCACCAAUACCTT; chemistry not given here)
[1]
  cell proliferation-suppressing effect (cell number): appeared more strongly in the hsa-miR-345-overexpressing line than in the hsa-miR-345 wild-type line
[2]
  suppression of the proliferation of normal cells: neither the BcL-XL inhibitor alone or the miR-345-related molecule alone nor their concurrent use suppressed the proliferation of normal cells
